In paper PMC6661729, “In silico design and synthesis of hesperitin derivatives as new xanthine oxidase inhibitors” (BMC Chemistry, 2019):

Columns and labels:
[1] = Hydrogen peroxide scavenging (H2O2) assay; conditions: phosphate buffer pH 7.4, 230 nm, 10 min; L-ascorbic acid standard; read-out: IC50 ± SEM (hydrogen peroxide assay)
Protocol: To compare and best evaluate the antioxidant potential of newly synthesized hesperitin derivatives, hydrogen peroxide assay was performed by the method described by Patel et al. with some modifications. The solution of H2O2 (100 mM) was prepared via the adding up different concentrations of synthesized derivatives ranging from 5 to 80 μg/mL to H2O2 solution (2 mL), prepared in 20 mM phosphate buffer of pH 7.4. Finally, the absorbance of H2O2 was measured at 230 nm after incubating for 10 min next to a blank reading of phosphate buffer without H2O2. For every measurement, a fresh reading of blank was taken to carry out background correction. For control sample containing H2O2 was scanned for absorbance at 230 nm. Results calculated as percentage of hydrogen peroxide inhibition was estimated by the formula [(Ab − At)/[…]] × 100, where Ab is the absorbance of the control and At is the absorbance of compounds/standard taken as L-ascorbic acid (5–80 μg/mL) are shown in Table 3.

[2] = test system: xanthine oxidase; assay: Enzyme kinetic analysis for XO-inhibitory activity (Michaelis-Menten, Lineweaver-Burk); type: biochemical, human; conditions: without inhibitor 117.6
Protocol: Firstly Michaelis–Menten curve was plotted for the enzyme activity at different concentrations of HET4 against different concentration of xanthine substrate (Fig. 6).
Then double reciprocal plot (Lineweaver–Burk) analysis was done in the presence (0.25, 0.5, and 1.0 µM) and absence of HET4 from in vitro data generated during the oxidation of xanthine in presence of xanthine oxidase (Fig. 7). The x- and y-axis intercepts of the Lineweaver–Burk plot were utilized to calculate Km and Vmax values of HET4 at different concentrations (Table 2).

[3] = Antioxidant activity by DPPH method; conditions: methanol, 37 °C, 517 nm; ascorbic acid positive control; read-out: IC50 ± SEM (DPPH assay)
Protocol: The antioxidant potential of hesperitin derivatives was performed by DPPH method evaluated in the form of IC50 estimated using the ELISA plate reader EPOCH™ “MICROPLATE READER (BIOTEK)”. This method opted for evaluation of free radical scavenging activity of DPPH was base on modified procedure described by Dhiman et al.. The tested compounds were prepared in methanolic solution and reacted with methanolic solution of DPPH at 37 °C. The reaction mixture was prepared in 96-well plate by adding 50 µL of sample, 50 µL […] of methanol and 50 µL of DPPH solution prepared in 0.1 mM in methanol. The mechanism of action of DPPH assay was based on the fact that DPPH radical get reduced during its reaction with an antioxidant compound and results in changes of color (from deep violet to light yellow). The absorbance was read at 517 nm for 30 min at an interval of 5 min of using ELISA microplate reader. The mixture of methanol (5.0 mL) and tested compounds (0.2 mL) serve as blank. Ascorbic acid served as positive control.

[4] = biological target: T1, human xanthine oxidase (Homo sapiens, UniProt P47989); assay: In vitro xanthine oxidase inhibitory activity (XO activity assay kit, H2O2 read at 570 nm); type: biochemical; conditions: 25 °C, xanthine substrate, allopurinol positive control; read-out: IC50 xanthine oxidase inhibition
T1 construct: purchased Sigma (sigma-aldrich.co, USA) MAK078
Protocol: For this research, the analytical grade chemicals necessary for synthesis and antioxidant activity were purchased from Hi-media Laboratories. The in vitro evaluation of the human xanthine oxidase inhibitory activity was performed by measuring hydrogen peroxide (H2O2) production from oxidation of […], utilizing the human xanthine oxidase assay kit (Sigma USA). The progress of reaction was observed through thin layer chromatography (TLC) on 0.25 mm precoated silica gel plates purchased from Merck, reaction spots were envisaged in iodine compartment and UV. Melting points were measured using a Sonar melting point apparatus and uncorrected. ^1H NMR and ^13C NMR spectra were documented in DMSO and deuterated CDCl3 respectively on Bruker Avance II 400 NMR spectrometer at the frequency of 400 MHz using tetramethylsilane standard (downfield) moreover chemical shifts were expressed in ppm (δ) using the residual solvent line as internal standard. Infrared (IR) spectra were recorded on Perkin Elmer FTIR spectrophotometer by utilizing KBr pellets system.
The method opted to evaluate the inhibitory potential of hesperitin derivatives was a modified protocol of Sigma, done by UV-spectrophotometric method by using xanthine oxidase activity assay kit purchased from sigma (MAK078, sigma-aldrich.co, USA). The colorimetric product obtained in the form of hydrogen peroxide generated during the oxidation of XO was determined by a coupled enzyme technique, measured at 570 nm in a 96-well plate, using the plate reader EPOCH™ “MICROPLATE READER (BIOTEK)”. One unit of XO is defined as the amount of enzyme that catalyzes the oxidation of xanthine substrate, yielding 1.0 µmol of uric acid and hydrogen peroxide per minute at 25 °C. Reagents used were 44 µL of xanthine oxidase assay buffer, 2 µL xanthine substrate solution and 2 µL of xanthine oxidase enzyme solution. All the solutions mentioned above were mixed to prepare reaction mixture. The different concentrations of synthesized derivatives having final volume 50 µL were prepared in dimethyl sulfoxide (DMSO) and added to 96 well plate. To each well 50 µL of reaction mix was added and mixed well. After 2–3 min initial measurement was taken. The plates were incubated at 25 °C taking measurements at every 5 min.

T1 sequence (P47989 whole entry): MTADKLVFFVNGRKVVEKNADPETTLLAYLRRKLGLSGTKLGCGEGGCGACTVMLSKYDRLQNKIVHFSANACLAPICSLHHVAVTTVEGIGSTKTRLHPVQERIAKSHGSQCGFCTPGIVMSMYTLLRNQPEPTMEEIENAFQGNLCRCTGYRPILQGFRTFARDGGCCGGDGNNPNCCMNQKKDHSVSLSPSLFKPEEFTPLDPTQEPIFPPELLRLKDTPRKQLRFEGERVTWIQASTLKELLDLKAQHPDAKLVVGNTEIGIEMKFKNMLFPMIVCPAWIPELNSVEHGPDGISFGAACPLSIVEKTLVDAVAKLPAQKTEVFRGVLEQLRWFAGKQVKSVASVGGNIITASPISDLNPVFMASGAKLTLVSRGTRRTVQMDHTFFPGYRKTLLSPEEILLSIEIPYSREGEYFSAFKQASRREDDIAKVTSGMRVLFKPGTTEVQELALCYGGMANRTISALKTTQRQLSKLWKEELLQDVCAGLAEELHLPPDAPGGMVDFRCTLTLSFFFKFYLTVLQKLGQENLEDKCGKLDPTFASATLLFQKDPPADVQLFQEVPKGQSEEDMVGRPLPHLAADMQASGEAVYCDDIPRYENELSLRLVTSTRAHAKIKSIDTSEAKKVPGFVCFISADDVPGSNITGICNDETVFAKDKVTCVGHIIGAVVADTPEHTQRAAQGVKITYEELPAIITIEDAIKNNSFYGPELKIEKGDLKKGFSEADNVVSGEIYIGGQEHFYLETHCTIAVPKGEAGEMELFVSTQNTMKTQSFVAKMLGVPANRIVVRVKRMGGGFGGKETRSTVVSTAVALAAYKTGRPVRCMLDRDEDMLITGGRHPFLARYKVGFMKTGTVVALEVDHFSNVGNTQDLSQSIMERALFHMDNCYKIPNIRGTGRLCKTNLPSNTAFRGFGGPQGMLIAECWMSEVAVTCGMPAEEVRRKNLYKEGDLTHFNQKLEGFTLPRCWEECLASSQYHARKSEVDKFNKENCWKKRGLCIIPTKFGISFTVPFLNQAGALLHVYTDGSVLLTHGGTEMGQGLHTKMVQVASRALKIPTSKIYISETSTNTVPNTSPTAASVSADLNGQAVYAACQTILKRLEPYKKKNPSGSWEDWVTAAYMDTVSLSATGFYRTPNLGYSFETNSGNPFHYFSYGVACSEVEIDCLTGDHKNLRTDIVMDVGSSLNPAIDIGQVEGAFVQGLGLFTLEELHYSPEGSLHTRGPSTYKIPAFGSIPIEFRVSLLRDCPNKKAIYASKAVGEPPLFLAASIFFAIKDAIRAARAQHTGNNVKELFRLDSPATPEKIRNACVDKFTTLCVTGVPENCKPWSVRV
xanthine oxidase, sequence (P47989 whole entry): as above

| IC50 [1] | Vmax of xanthine oxidase ([2]; Conc. of HET4 0.25 µM) | Vmax of xanthine oxidase ([2]; Conc. of HET4 0.5 µM) | Vmax of xanthine oxidase ([2]; Conc. of HET4 1.0 µM) | IC50 [3] | IC50 [4] | Compound |
| --- | --- | --- | --- | --- | --- | --- |
| 4.642 ± 0.03 µM | 116.4 µmol/min | 112.2 µmol/min | 103.7 µmol/min | 1.633 ± 0.01 µM | 9.09 µM | COc1ccc([C@@H]2CC(=O)c3c(OC)cc(OC(=O)/C=C/c4ccc(O)c(O)c4)cc3O2)cc1OC [HET4] |
| 8.547 ± 0.06 µM | – | – | – | 6.71 ± 0.15 µM | 23.2 ± 1.25 µM | COc1ccc([C@@H]2CC(=O)c3c(OC)cc(OC(=O)c4ccccc4S)cc3O2)cc1OC [HET2] |
| 3.322 ± 0.01 µM | – | – | – | – | 12.9 ± 0.72 µM | COc1ccc([C@@H]2CC(=O)c3c(OC)cc(OC(=O)C(O)c4ccccc4)cc3O2)cc1OC (some centres unmarked) [HET3] |
| 6.37 ± 0.26 µM | – | – | – | 4.82 ± 0.06 µM | 10.8 µM | COc1ccc([C@@H]2CC(=O)c3c(OC)cc(OC(=O)c4cccnc4)cc3O2)cc1OC [HET5] |
| 14.43 ± 0.14 µM | – | – | – | 12.9 ± 0.2 µM | 29.25 ± 0.12 µM | COc1ccc([C@@H]2CC(=O)c3c(O)cc(O)cc3O2)cc1O [Hesperitin] |
| 7.51 ± 0.02 µM | – | – | – | 7.11 ± 0.13 µM | 11.7 µM | COc1cc(C(=O)Oc2cc(OC)c3c(c2)O[C@H](c2ccc(OC)c(OC)c2)CC3=O)ccc1O [HET6] |
